In experiment [1] the target is T1, methylenetetrahydrofolate reductase (cMTHFR) (Thermochaetoides thermophila, UniProt G0S5U9).
T1 construct: gene CTHT_0033700; cMTHFR^wt
T1 sequence (G0S5U9 1-614): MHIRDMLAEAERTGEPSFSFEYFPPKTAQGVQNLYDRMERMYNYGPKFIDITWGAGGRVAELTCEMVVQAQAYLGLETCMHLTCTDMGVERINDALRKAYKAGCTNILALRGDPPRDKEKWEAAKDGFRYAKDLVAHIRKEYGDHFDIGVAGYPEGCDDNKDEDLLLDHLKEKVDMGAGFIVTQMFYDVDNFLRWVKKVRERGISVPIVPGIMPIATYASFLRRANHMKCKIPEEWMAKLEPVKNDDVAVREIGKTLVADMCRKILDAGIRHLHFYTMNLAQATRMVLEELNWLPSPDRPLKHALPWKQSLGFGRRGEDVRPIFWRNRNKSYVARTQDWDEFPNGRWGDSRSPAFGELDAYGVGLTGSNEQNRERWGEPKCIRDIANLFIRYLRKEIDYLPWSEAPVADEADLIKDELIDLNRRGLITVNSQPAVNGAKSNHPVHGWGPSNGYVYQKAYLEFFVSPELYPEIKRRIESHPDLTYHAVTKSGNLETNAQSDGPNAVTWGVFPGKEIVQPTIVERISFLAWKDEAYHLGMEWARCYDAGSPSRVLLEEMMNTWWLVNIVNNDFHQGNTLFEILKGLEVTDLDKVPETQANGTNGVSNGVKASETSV
The experiment can be described thus: UV-Vis titration (FAD absorbance quench at […] nm, Hill fit, coefficient […]); […] also inhibits NADPH-menadione oxidoreductase activity by […]. The experiment is classed as binding.

Experiment [2] has as its target T2, methylenetetrahydrofolate reductase (cMTHFR) (Thermochaetoides thermophila, UniProt G0S5U9, R315A).
T2 sequence (G0S5U9 1-614 R315A): T1 sequence (G0S5U9 1-614) with R315A
Put plainly: X-ray crystal structure, […] Å (T-state). It counts as binding. Also noted: gene CTHT_0033700; cMTHFR^R315A, homodimer; two AdoMet per regulatory domain. The source says:
Unexpectedly, two molecules of AdoMet were found

Experiment [3] concerns the target T1, methylenetetrahydrofolate reductase (cMTHFR). Put plainly: NADPH-menadione oxidoreductase assay, purified enzyme ([…] NADPH). It counts as biochemical.
In experiment [4] the target is T3, methylenetetrahydrofolate reductase (cMTHFR) (Thermochaetoides thermophila, UniProt G0S5U9, E21Q/L393M/V516F).
T3 construct: gene CTHT_0033700; cMTHFR^E21Q, L393M, V516F, surface lysines reductively methylated
T3 sequence (G0S5U9 1-614 E21Q/L393M/V516F): T1 sequence (G0S5U9 1-614) with E21Q, L393M, V516F
The experiment can be described thus: X-ray crystal structure, […] Å (R-state). The experiment is classed as binding.

The target in experiment [5] is T2, methylenetetrahydrofolate reductase (cMTHFR). The experiment can be described thus: X-ray crystal structure, […] Å (T-state). The experiment is classed as binding. Also noted: gene CTHT_0033700; cMTHFR^R315A.
Experiment [6] addresses T1, methylenetetrahydrofolate reductase (cMTHFR). Put plainly: NADH-menadione oxidoreductase assay, purified enzyme ([…] NADH). It counts as biochemical.

Residue numbers refer to the chain shown, from its start. Read-outs that look alike come from different tables or passages of the source.

The Kd is the concentration at which binding is half-saturated. The low end stands for higher affinity, the high end for lower affinity.

In turn, `C[S@@+](CC[C@H](N)C(=O)[O-])C[C@H]1O[C@@H](n2cnc3c(N)ncnc32)[C@H](O)[C@@H]1O` [AdoMet] had a Kd in experiment [1] of roughly 18.8 µM. The “X-ray crystal structure, 2.8 Å (T-state)” value in experiment [2] is reported as “The regulatory domain was found to bind AdoMet, as expected for the T-state. Unexpectedly, two molecules of AdoMet were found”.
On to `NC(=O)C1=CN([C@@H]2O[C@H](COP(=O)(O)OP(=O)(O)OC[C@H]3O[C@@H](n4cnc5c(N)ncnc54)[C@H](OP(=O)(O)O)[C@@H]3O)[C@@H](O)[C@H]2O)C=CC1` [NADPH], for which the “NADPH-menadione oxidoreductase assay, purified enzyme (100 μM NADPH)” value in experiment [3] is 120 µM/min.
For the compound `Cc1cc2nc3c(=O)[nH]c(=O)nc-3n(C[C@H](O)[C@H](O)[C@H](O)COP(=O)(O)OP(=O)(O)OC[C@H]3O[C@@H](n4cnc5c(N)ncnc54)[C@H](O)[C@@H]3O)c2cc1C` [FAD], the “X-ray crystal structure, 3.4 Å (R-state)” value in experiment [4] is given as “Electron density for FAD was observed in every catalytic active site”. Further, the “X-ray crystal structure, 2.8 Å (T-state)” value in experiment [5] is reported as “the si-face of FAD is occluded by Tyr361 on the C-terminal region of the linker, which forms a π-stacking interaction”.
For `NC(=O)C1=CN([C@@H]2O[C@H](COP(=O)(O)OP(=O)(O)OC[C@H]3O[C@@H](n4cnc5c(N)ncnc54)[C@H](O)[C@@H]3O)[C@@H](O)[C@H]2O)C=CC1` [NADH], the “NADH-menadione oxidoreductase assay, purified enzyme (100 μM NADH)” value in experiment [6] amounted to 44 µM/min.

The values are drawn from paper PMC11183114, “Structural basis of S-adenosylmethionine-dependent allosteric transition from active to inactive states in methylenetetrahydrofolate reductase” (Nature Communications, 2024).
